# Laboratory results published in patent publication EP1200395B1, “UREA DERIVATIVES AS INHIBITORS OF CCR-3 RECEPTOR” (KIRIN BEER KABUSHIKI KAISHA, priority 1999, dated 2001).
# Columns and labels:
# [1] = test system: collagen-induced arthritis; test: Type II collagen-induced arthritis in mice, clinical score; type: in vivo, Male DBA/1 mice; settings: 20 mg/kg per day subcutaneously starting at 2nd immunization; versus control vehicle; Figure 1A/1B
# [2] = test system: bronchoconstriction provoked by acetylcholine; test: Airway hyperreactivity: bronchoconstriction provoked by acetylcholine (murine asthma model, OVA-immunized mice); type: in vivo, Male BALB/c mice; settings: administered intraperitoneally for 9 days, starting on the first day of antigen inhalation; Figure 2A
# Protocol: (§1) Male BALB/c mice were immunized by an intraperitoneal injection of 10 µg OVA adsorbed to 1 mg aluminum hydroxide gel (alum). A booster injection of the same dose of alum-adsorbed OVA was given 5 days later. Unitnmunized control mice received saline.
# (§2) Twelve days after primary immunization, both the immunized and unimmunized mice were exposed to aerosolized antigen. Aerosolization of OVA was performed using a nose-only aerosol chamber adapted for mice. Animals were exposed for 10 minutes to 5 mg/ml OVA aerosolized by an ultrasonic nebulizer (NE-U12, Omron, Tokyo, Japan) driven by a vacuum pump. The antigen bronchoprovocation was repeated on day 16 and day 20 under the same conditions. Compound No. 298 (CPD No. 298) was dissolved in saline containing 2 % DMSO and 2 % Cremophore and administered intraperitoneally for 9 days, starting on the first day of antigen inhalation.
# Twenty-four hours after the final aerosol exposure, bronchoconstriction was measured by the overflow method of Konzett and Rössler. […] Bronchoconstriction was recorded on a flatbed recorder (Model FBR-252A, TOA Electronics Ltd., Tokyo, Japan). […]
# [3] = test system: eosinophil infiltration to bronchoalveolar lavage fluid (BALF); test: Eosinophil infiltration in bronchoalveolar lavage fluid (BALF), murine asthma model; type: in vivo, Male BALB/c mice; settings: administered intraperitoneally for 9 days; two hundred cells counted per slide; Figure 2C
# Protocol: as §1, §2
# Immediately after the measurement of airway reactivity to acethycholine, BALF was collected by lavaging whole-lung three times with 0.7-ml aliquots of physiological saline containing 0.1 % BSA via the tracheal cannula while gently massaging the thorax. The BALF recovered from one mouse was pooled, centrifuged, and the cells were resuspended in 100 µl saline containing 0.1 % BSA. Cell numbers were determined using a hemocytometer and 2 x 10^4 cells were cytecetrifuged onto a glass slide. […]
# CCR-3 = target: T1, CCR-3 (Homo sapiens, UniProt P51677); test: Eotaxin-induced chemotaxis of CCR-3 transfectant cells (CCR3/U937); type: cell-based; parameters: expressed in transfected cells; host or cells: U937; settings: U-937; 10 µM test compound; eotaxin 1 x 10^-9 M; CCR3/U937 cells (Table 3c)
# T1 sequence (P51677 1-355): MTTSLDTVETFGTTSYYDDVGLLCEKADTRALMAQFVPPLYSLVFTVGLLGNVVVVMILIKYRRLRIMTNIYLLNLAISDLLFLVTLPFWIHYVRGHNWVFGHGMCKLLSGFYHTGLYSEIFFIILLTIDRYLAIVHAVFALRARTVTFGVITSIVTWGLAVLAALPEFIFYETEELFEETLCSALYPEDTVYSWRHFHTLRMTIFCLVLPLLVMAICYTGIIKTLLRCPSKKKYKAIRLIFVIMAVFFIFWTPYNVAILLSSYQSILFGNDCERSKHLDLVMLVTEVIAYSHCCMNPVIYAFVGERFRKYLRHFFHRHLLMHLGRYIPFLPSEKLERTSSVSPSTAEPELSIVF
smiles,measurement,setting,value
"CC[N+](CCCNC(=O)Nc1ccccc1)(CCc1ccc(Cl)cc1)Cc1ccc(Cl)cc1.[I-] (stereo not shown) [Compound 298, [3-(Phenylureido)propyl][2-(4-chlorophenyl)ethyl](4-chlorobenzyl)ethylammonium iodide]","clinical score, collagen-induced arthritis",[1],marked prevention in clinical score
same,bronchoconstriction provoked by acetylcholine,[2],Inhibition of bronchoconstriction
same,eosinophil infiltration to bronchoalveolar lavage fluid (BALF),[3],significantly suppressed eosinophil infiltration
same,inhibition at 10 µM,CCR-3,100%
